Test results from patent US8603997B2, “siRNA that inhibits WT1 gene expression and uses thereof” (Haruo Sugiyama, priority 2004, dated 2013).

Legend:
PC-14 [1] = assay: Mitochondrial membrane potential by MitoLight staining and flow cytometry, PC-14; assay type: cell-based; conditions: PC-14 (non-WT1-expressing), 72 hours
Procedure: (§1) To elucidate whether the vector-based WT1 siRNA-induced apoptosis takes place through a mitochondria-mediated pathway, the WT1-expressing cell line HT-1080 cells and the non-WT1-expressing cell line PC14 cells were both treated with WRI-4m and a mock vector respectively. 72 hours later, the state of mitochondrial membrane potential was analyzed by MitoLight staining followed by flow cytometry.
(§2) The change in mitochondrial membrane potential (ΔΨm) due to apoptosis induction was analyzed using the MitoLight apoptosis detection kit (Chemicon). Cells after apoptosis induction were incubated at 37° C. in a buffer containing MitoLight (a mitochondria staining dye) for 15 minutes, and then analyzed on a FACScan FL2 channel.

cancer cells [2] = assay: Release of cytochrome c from mitochondria into cytoplasm after combined treatment (Western blot); assay type: cell-based
Procedure: Western blot analysis was carried out by the following steps. Cells transiently expressing the siRNA expression vectors and mock vector were dissolved in an SDS sample buffer, and proteins were separated by SDS-PAGE and then blotted onto a PVDF membrane. Color was developed using a BCIP-NBT kit with the anti-WT1 antibody C-19 (Santa Cruz Biotechnology), an anti-cytochrome C antibody (Pharmingen), or an anti-GAPDH antibody (Chemicon) as a primary antibody, and an ALP-conjugated anti-rabbit or anti-mouse antibody (Santa Cruz Biotechnology) as a second antibody.
Combined use of an siRNA vector with a chemotherapeutic agent or a death ligand, was carried out by the following steps. […]
To reveal that enhancement of cell growth suppression due to combined use of vector-based WT1-siRNA with an anticancer agent is caused by enhancing the induction of mitochondria-mediated apoptosis, the release of cytochrome c from mitochondria into cytoplasm which takes place after combined treatment of vector-based WT1-siRNA with doxorubicin or etoposide was analyzed.
The release of cytochrome c from mitochondria into cytoplasm was analyzed by the following steps. […]

[3] = tested on: HT-1080 fibrosarcoma cells (WT1-expressing); assay: Cell count 72 hours after introducing vector-based WT1 siRNAs, HT-1080; conditions: HT-1080, cell count 72 hours after introduction, versus mock vector
Procedure: (§3) Treatments with the siRNA vectors and mock vector were carried out in the following steps. Cells were plated onto a 6-well plate, and on the next day, the WT1-siRNA expression vectors and mock vector were transiently expressed by lipofection using FuGENE 6 (Roche). Three days later, the cells were trypsinized and the number of cells was counted. The WT1 protein expression level in these cells was analyzed by Western blotting.
To analyze the effect of vector-based WT1 siRNAs on cell growth, the number of cells was counted 72 hours after introducing the six types of vector-based WT1 siRNAs, loop1-WRI-4, WRI-4, WRI-4m, WRI-16m, WRI-17m, and WRI-18m, and a mixture of WRI-4m, WRI-16m, WRI-17m, and WRI-18m, respectively. […] Among the WT1 siRNAs, WRI-4m suppressed growth by 90% or more. In contrast, in PC-14 lung cancer cells (a non-WT1-expressing cell line), cell growth was not suppressed by any of the six vector-based WT1 siRNA treatments (FIG. 6).

HL-60 leukemia cells = assay: Cell count 72 hours after vector introduction, HL-60; assay type: cell-based; conditions: HL-60, cell count 72 hours later
Procedure: as §3
(§4) Furthermore, to investigate whether two types of vector-based WT1 siRNAs (WRI-4m and WRI-16m) can suppress the growth of various WT1-expressing cancer cells, these vectors were introduced into three WT1-expressing cell lines: AZ-521 gastric cancer cells, SW620 colon cancer cells, and HL-60 leukemia cells, and the number of cells were counted 72 hours later.

HT-1080 cells [4] = assay: Mitochondrial membrane potential by MitoLight staining and flow cytometry, HT-1080; assay type: cell-based; conditions: HT-1080, 72 hours, compared to mock vector treatment
Procedure: as §1, §2

AZ-521 cells = assay: Apoptosis by Annexin V-FITC/PI flow cytometry, AZ-521; assay type: cell-based
Procedure: (§5) To elucidate the mechanism of cancer cell growth suppression by vector-based WT1 siRNAs, induction of apoptosis in cells subjected to a vector-based WT1 siRNA treatment was analyzed. Two WT1-expressing cell lines HT-1080 and AZ-521, and a non-WT1-expressing cell line PC-14 were subjected to the WRI-4m treatment, double-stained with AnnexinV-FITC and PI, and then analyzed by flow cytometry.
(§6) Apoptosis analysis by flow cytometry was carried out by the following steps. First, to detect apoptosed cells, 1.0×10^5 cells were washed with PBS, and then the cells were stained by reaction with Annexin V-FITC and PI at room temperature for 15 minutes, using the MEBCYTO Apoptosis kit (Medical and Biological Laboratories Co., Ltd, Nagoya, Japan). Upon analysis of these cells using a FACScan flowcytometer (Becton Dickinson, San Jose, Calif.), Annexin V-FITC-positive cells were defined as apoptosed cells.

cancer cells [5] = assay: Mitochondrial membrane potential after combined treatment (flow cytometry); assay type: cell-based; conditions: compared to anticancer agent alone
Procedure: as §2
Combined use of an siRNA vector with a chemotherapeutic agent or a death ligand, was carried out by the following steps. Cells were plated onto a 6-well plate, and on the next day, the vector-based WT1 siRNA and mock vector were transiently expressed by lipofection using FuGENE 6 (Roche), and 48 hours later, the cells were treated for another 24 hours with 25 μM etoposide (WAKO), 0.2 μM doxorubicin (Sigma), or […] of TNF-related apoptosis-inducing ligand (TRAIL) (Peprotech).
Mitochondrial membrane potential after combined treatment using vector-based WT1 siRNA with doxorubicin, etoposide, and TRAIL, respectively, was evaluated by flow cytometry.

PC-14 [6] = assay: Apoptosis by Annexin V-FITC/PI flow cytometry, PC-14; assay type: cell-based; conditions: PC-14 (non-WT1-expressing)
Procedure: as §5, §6

SW620 colon cancer cells = assay: Cell count 72 hours after vector introduction, SW620; assay type: cell-based; conditions: SW620, cell count 72 hours later
Procedure: as §3, §4

[7] = tested on: AZ-521 gastric cancer cells; assay: Cell count 72 hours after vector introduction, AZ-521; assay type: cell-based; conditions: AZ-521, cell count 72 hours later
Procedure: as §3, §4

HT-1080 cells [8] = assay: Apoptosis by Annexin V-FITC/PI flow cytometry, HT-1080; assay type: cell-based
Procedure: as §5, §6

With “WRI-4m: siRNA vector, loop 2, target positions 1150-1179 (SEQ ID NO: 9), mutated sense strand SEQ ID NO: 11 (sense AGCTCCAGCTTAGTGAAGTGGGTAGGAGGG)” the “loss of the mitochondrial membrane potential” value (PC-14 [1]) was “did not induce”, the “release of cytochrome c into cytoplasm” value (cancer cells [2]; combined treatment with doxorubicin (0.2 μM, 24 hours)) was “enhanced” and the “release of cytochrome c into cytoplasm” value (cancer cells [2]; combined treatment with etoposide (25 μM, 24 hours)) was “enhanced”. The growth suppression [3] was no less than 90%, the “growth compared to mock vector treatment” value (HL-60 leukemia cells) was “significantly suppressed” and the “loss of the mitochondrial membrane potential” value (HT-1080 cells [4]) was “significantly induced”. The “apoptosis induced (Annexin V-FITC-positive cells)” value (AZ-521 cells) was 40.6%, the “loss of mitochondrial membrane potential” value (cancer cells [5]; combined treatment with doxorubicin) was “significantly enhanced” and the “loss of mitochondrial membrane potential” value (cancer cells [5]; combined treatment with etoposide) was “significantly enhanced”. For the same substance, the apoptosis induction (PC-14 [6]) was “did not induce apoptosis”, the “growth compared to mock vector treatment” value (SW620 colon cancer cells) was “significantly suppressed” and the “growth compared to mock vector treatment” value [7] was “significantly suppressed”. The “apoptosis induced (Annexin V-FITC-positive cells)” value (HT-1080 cells [8]) was 71.1%.
